Common to all, as to assay type: cell-based, K. pneumoniae
In one assay the test system is K. pneumo 13882. The experiment in a line: Selective lysis test, OD600, meropenem and cefotaxime (Example 2). As for the experimental part:
(§1) In this experiment the following strains were tested: strain K. pneumoniae 13882 (previously considered meropenem sensitive and cefotaxime sensitive); E. coli BAA-197 (ESBL) (which expresses an extended-spectrum (beta)-lactamase enzyme and was previously considered meropenem sensitive and cefotaxime resistant); K. pneumoniae BAA-1705 (KPC) (which expresses a carbapenemase enzyme and was previously considered meropenem resistant and cefotaxime resistant); and K. pneumoniae BAA-2146 (NDM1) (which expresses the metallo-beta-lactamase-1 enzyme and was previously considered meropenem resistant and cefotaxime resistant).
(§2) An isolated colony from an overnight Tryptocase Soy Agar (TSA) plate of each bacteria was suspended in 1 ml Tryptocase Soy Broth (TSB) in a 5 ml BD polystyrene round bottom tube. TSB cultures were incubated at 37° C. for 1.5 hours shaking. Three 250 μl aliquots of each stationary-phase culture were then transferred to three 2 ml Eppendorf microcentrifuge tubes. One tube contained 500 μl of Normal Saline (BD); the second tube contained 500 μl Normal Saline with meropenem at 10 μg/ml; and the third tube contained 500 μl Normal Saline with cefotaxime (abbreviated […]) at 10 μg/ml. Tubes were inverted then incubated at 37° C. stagnant for thirty minutes. Then […] of lysis buffer (0.5% SDS in PSB) was added to each tube and each tube was vortexed for 5 seconds. Post incubation, all tubes were spun at 10000 G for 5 minutes. Supernatant was decanted and the pellet resuspended in Normal Saline. Tubes were vortexed. OD600 was measured using Eppendorf uvettes in a spectrophotometer. The delta between the control and the meropenem normal saline, or the control and the cefotaxime normal saline was used to determine susceptibility.

In a further assay the test system is K. pneumo BAA-1705 (KPC). The assay is described as above. On the procedure: as §1, §2
The subject of assay [1] is K. pneumo BAA-2146 (NDM1). The assay is described as above. On the procedure: as §1, §2
A further assay concerns K. pneumo 13882 (NDM−). As to the kind of experiment: Selective lysis test, flow cytometry cell count (Example 5). Also noted: key to R or S: R: meropenem resistant strain; S: meropenem sensitive strain. On the procedure:
(§3) An isolated colony from overnight Tryptocase Soy Agar (TSA) plate for each bacteria was suspended in 1 ml Tryptocase Soy Broth (TSB) in a 5 ml BD polystyrene round bottom tube. TSB cultures were incubated at 37° C. overnight. Ten μl of overnight culture was inoculated into 1 ml TSB and incubated shaking at 37° C. for three hours. Two 250 μl aliquots of each log-phase culture were transferred to two 2 ml Eppendorf microcentrifuge tubes. One tube contained 500 μl of Normal Saline (BD); the second tube contained 504.1 Normal Saline with meropenem at 10 μg/ml. Tubes were inverted then incubated at 37° C. stagnant for thirty minutes. An aliquot was removed at this point for flow cytometry measurement of the total cell count. Then 250 μl lysis buffer (0.5% SDS in PSB) was added to each tube and each tube was vortexed for 5 seconds. Post incubation, all tubes were spun at 10000 G for 5 minutes. Supernatant was decanted and the pellet resuspended in Normal Saline. Tubes were vortexed.
(§4) Re-suspended pellets were then diluted 20 times into a solution of 10 mM Tris-HCl pH=7.6, containing 2.5 μM SYTO 9 (stain permeable to all bacterial cells). Stained bacterial cells were analyzed by flow cytometry using the Guava EasyCyte™ Mini System equipped with a 488 nm diode laser, capillary flow cell, forward and side scatter detectors and fluorescence (green, yellow and red) detectors. Flow cytometry dot plots were acquired with CytoSoft (Guava ExpressPlus) software and cell counts were obtained.
Background: A flow cytometer gives signals particle by particle.

The subject of the next assay is K. pneumo BAA2146 (NDM+). Described as above. More on the design: key to R or S: R: meropenem resistant strain; S: meropenem sensitive strain. As for the experimental part:
as §3, §4

[2] abbreviates: K. pneumo 13882 (NDM−), 10 μg/ml Meropenem, Post-lysis + spin.
The mark [3] stands for this setting: K. pneumo BAA2146 (NDM+), 10 μg/ml Meropenem, Post-lysis + spin.

Regarding `C[C@@H](O)[C@H]1C(=O)N2C(C(=O)O)=C(S[C@@H]3CN[C@H](C(=O)N(C)C)C3)[C@H](C)[C@H]12` [meropenem], the “% diff” value with K. pneumo 13882 (K. pneumo 13882, OD600 vs control) was 65.1%; in the assay with K. pneumo BAA-1705 (KPC) (K. pneumo BAA-1705 (KPC), OD600 vs control), 16.6%; in assay [1] (K. pneumo BAA-2146 (NDM1), OD600 vs control), −0.3%. Also, the OD600 in the assay with K. pneumo 13882 (K. pneumo 13882, antibiotic 10 μg/ml, 30 min, SDS lysis buffer + vortex, 1.5 h culture) is reported as 0.127; in the assay on K. pneumo BAA-1705 (KPC) (K. pneumo BAA-1705 (KPC), antibiotic 10 μg/ml, 30 min, SDS lysis buffer + vortex, 1.5 h culture) it was 0.423; in assay [1] (K. pneumo BAA-2146 (NDM1), antibiotic 10 μg/ml, 30 min, SDS lysis buffer + vortex, 1.5 h culture) it was 0.301. Also, the “assay score (sensitive or resistant)” value with K. pneumo 13882 (K. pneumoniae 13882) is “sensitive”; in the assay with K. pneumo BAA-1705 (KPC) (K. pneumoniae BAA-1705 (KPC)), “resistant”; in assay [1] (K. pneumoniae BAA-2146 (NDM1)) it was “resistant”. Besides, the “Cell Number/ml” value in the assay on K. pneumo 13882 (NDM−) (setting [2]) worked out at 241000 mL⁻¹; in the assay on K. pneumo 13882 (NDM−) (K. pneumo 13882 (NDM−), 10 μg/ml Meropenem, Pre-lysis) it was 2.38e+06 mL⁻¹; with K. pneumo BAA2146 (NDM+) (setting [3]) it was 2.83e+06 mL⁻¹; in the assay with K. pneumo BAA2146 (NDM+) (K. pneumo BAA2146 (NDM+), 10 μg/ml Meropenem, Pre-lysis), 3.04e+06 mL⁻¹. Besides, the figures for the “R or S” value with K. pneumo 13882 (NDM−) (setting [2]) and in the assay with K. pneumo BAA2146 (NDM+) (setting [3]) were “S” and “R”, respectively. For the same compound, the “reduction in cell number after lysis and centrifugation” value in the assay on K. pneumo 13882 (NDM−) (K. pneumoniae 13882 (NDM−), meropenem treated sample, post-lysis vs pre-lysis) is given as 90%; with K. pneumo BAA2146 (NDM+) (K. pneumoniae BAA2146 (NDM+), meropenem treated sample, post-lysis vs pre-lysis) it was 7%.

For the origin of these results see US20160281125A1, “ANTIMICROBIAL COMPOUND SUSCEPTIBILITY TEST” (priority 2013, published 2016).
